# According to PMC10343355, “Finding the Right Solvent: A Novel Screening Protocol for Identifying Environmentally Friendly and Cost-Effective Options for Benzenesulfonamide” (Molecules, 2023):
# Assay: Shake-flask solubility of BSA in neat solvents and aqueous binary mixtures, spectrophotometric determination at 264 nm
# Assay type: physicochemical
# Conditions: for log(x1)exp: mole fraction solubility
# Experimental: In order to determine the solubility of BSA in the studied solvents, excess amounts of it were added to test tubes pre-filled with a particular solvent or a binary mixture of this solvent and water in different molar proportions. Saturated solutions prepared in this manner were placed in an ES-20/60 Orbital Shaker Incubator from Biosan (Riga, Latvia) and incubated for 24 h at different temperatures. Four temperatures were used in the range from 25 °C to 40 °C with 5 °C intervals. The temperature in the incubator was adjusted with 0.1-degree accuracy with a 0.5-degree variance in a 24 h cycle. Simultaneously, the samples were mixed at 60 rev/min. In the next stage, the filtration of the samples took place, utilizing syringes equipped with PTFE filters with 0.22 µm pore size. Since the temperature difference between the measured solutions and used instruments can possibly lead to precipitation, all of the used test tubes, pipette tips, syringes, and filters were initially heated. This was carried out by placing them in the same incubator as the samples and heating them at exactly the same temperature prior to the handling of the samples. This was particularly important in the case of elevated temperatures, as the difference between, e.g., 40 °C and room temperature is quite extensive. Then, small amounts of the obtained filtrate were diluted in different test tubes containing methanol and measured spectrophotometrically. In order to determine the mole fractions of BSA in the samples, their density was also measured by weighing a 1 mL volume of each of the solutions, taken by using an Eppendorf Reference 2 pipette (Hamburg, Germany), in 10 mL volumetric flasks. The systematic error of the pipette was 6 μL. The precision of the RADWAG (Radom, Poland) AS 110.R2 PLUS analytical balance that was used in this study was 0.1 mg. The A360 spectrophotometer from AOE Instruments (Shanghai, China) was used for solubility determination. The spectra were recorded in the 190 nm to 400 nm wavelength range with a 1 nm resolution. Methanol was used for both the dilution of the samples and the initial calibration of the spectrophotometer. The analytical wavelength was determined to be 264 nm, and the absorbance of the samples at this wavelength was used for the determination of the BSA concentration in the samples and the subsequent calculation of its mole fractions. Three separate measurements were used, and the resulting values were averaged. The calibration curve for BSA was generated by preparing successive dilutions of an initial stock solution and performing spectrophotometric measurements of the resulting solutions with decreasing concentrations. The molar concentrations of measured solutions were 3.19 × 10^−3, 2.84 × 10^−3, 2.46 × 10^−3, 2.13 × 10^−3, 1.88 × 10^−3, 1.60 × 10^−3, 1.26 × 10^−3, 9.53 × 10^−4, 5.70 × 10^−4, and 4.80 × 10^−4 M). The relationship between the absorbance values at 264 nm and the solution concentration was described by the linear equation A = 470.86 × C + 0.0093 (A—absorbance; C—molar concentration), with a determination coefficient R^2 equal 0.9996, denoting high linearity.
compound,measurement,setting,value
"NS(=O)(=O)c1ccccc1 [BSA, Benzenesulfonamide]","solubility, X^exp × 10^3","4FM+water, x2*(4FM)=0.2, 298.15 K",23.42 ± 0.86 mole fraction × 10^3
same,"solubility, X^exp × 10^3","4FM+water, x2*(4FM)=0.2, 303.15 K",32.61 ± 1.65 mole fraction × 10^3
same,"solubility, X^exp × 10^3","4FM+water, x2*(4FM)=0.2, 308.15 K",48.14 ± 1.59 mole fraction × 10^3
same,"solubility, X^exp × 10^3","4FM+water, x2*(4FM)=0.2, 313.15 K",69.19 ± 2.56 mole fraction × 10^3
same,"solubility, X^exp × 10^3","4FM+water, x2*(4FM)=0.4, 298.15 K",45.67 ± 0.33 mole fraction × 10^3
same,"solubility, X^exp × 10^3","4FM+water, x2*(4FM)=0.4, 303.15 K",68.93 ± 1.12 mole fraction × 10^3
same,"solubility, X^exp × 10^3","4FM+water, x2*(4FM)=0.4, 308.15 K",102.78 ± 3.56 mole fraction × 10^3
same,"solubility, X^exp × 10^3","4FM+water, x2*(4FM)=0.4, 313.15 K",142.57 ± 6.01 mole fraction × 10^3
same,"solubility, X^exp × 10^3","4FM+water, x2*(4FM)=0.6, 298.15 K",61.48 ± 0.85 mole fraction × 10^3
same,"solubility, X^exp × 10^3","4FM+water, x2*(4FM)=0.6, 303.15 K",101.16 ± 0.91 mole fraction × 10^3
same,"solubility, X^exp × 10^3","4FM+water, x2*(4FM)=0.6, 308.15 K",146.31 ± 6.19 mole fraction × 10^3
same,"solubility, X^exp × 10^3","4FM+water, x2*(4FM)=0.6, 313.15 K",196.38 ± 7.85 mole fraction × 10^3
same,"solubility, X^exp × 10^3","4FM+water, x2*(4FM)=0.8, 298.15 K",68.53 ± 0.63 mole fraction × 10^3
same,"solubility, X^exp × 10^3","4FM+water, x2*(4FM)=0.8, 303.15 K",118.09 ± 6.45 mole fraction × 10^3
same,"solubility, X^exp × 10^3","4FM+water, x2*(4FM)=0.8, 308.15 K",178.71 ± 6.67 mole fraction × 10^3
same,"solubility, X^exp × 10^3","4FM+water, x2*(4FM)=0.8, 313.15 K",242.26 ± 2.09 mole fraction × 10^3
same,"solubility, X^exp × 10^3","DMF+water, x2*(DMF)=0.2, 298.15 K",42.18 ± 0.83 mole fraction × 10^3
same,"solubility, X^exp × 10^3","DMF+water, x2*(DMF)=0.2, 303.15 K",46.69 ± 1.75 mole fraction × 10^3
same,"solubility, X^exp × 10^3","DMF+water, x2*(DMF)=0.2, 308.15 K",54.78 ± 1.76 mole fraction × 10^3
same,"solubility, X^exp × 10^3","DMF+water, x2*(DMF)=0.2, 313.15 K",63.21 ± 1.40 mole fraction × 10^3
same,"solubility, X^exp × 10^3","DMF+water, x2*(DMF)=0.4, 298.15 K",161.16 ± 3.97 mole fraction × 10^3
same,"solubility, X^exp × 10^3","DMF+water, x2*(DMF)=0.4, 303.15 K",179.12 ± 10.87 mole fraction × 10^3
same,"solubility, X^exp × 10^3","DMF+water, x2*(DMF)=0.4, 308.15 K",202.07 ± 2.93 mole fraction × 10^3
same,"solubility, X^exp × 10^3","DMF+water, x2*(DMF)=0.4, 313.15 K",233.72 ± 14.10 mole fraction × 10^3
same,"solubility, X^exp × 10^3","DMF+water, x2*(DMF)=0.6, 298.15 K",231.63 ± 6.50 mole fraction × 10^3
same,"solubility, X^exp × 10^3","DMF+water, x2*(DMF)=0.6, 303.15 K",253.07 ± 9.75 mole fraction × 10^3
same,"solubility, X^exp × 10^3","DMF+water, x2*(DMF)=0.6, 308.15 K",281.23 ± 1.05 mole fraction × 10^3
same,"solubility, X^exp × 10^3","DMF+water, x2*(DMF)=0.6, 313.15 K",319.28 ± 11.90 mole fraction × 10^3
same,"solubility, X^exp × 10^3","DMF+water, x2*(DMF)=0.8, 298.15 K",268.17 ± 4.27 mole fraction × 10^3
same,"solubility, X^exp × 10^3","DMF+water, x2*(DMF)=0.8, 303.15 K",286.69 ± 8.71 mole fraction × 10^3
same,"solubility, X^exp × 10^3","DMF+water, x2*(DMF)=0.8, 308.15 K",317.90 ± 8.49 mole fraction × 10^3
same,"solubility, X^exp × 10^3","DMF+water, x2*(DMF)=0.8, 313.15 K",356.68 ± 8.53 mole fraction × 10^3
same,"solubility, X^exp × 10^3","DMSO+water, x2*(DMSO)=0.2, 298.15 K",35.84 ± 1.56 mole fraction × 10^3
same,"solubility, X^exp × 10^3","DMSO+water, x2*(DMSO)=0.2, 303.15 K",40.39 ± 0.41 mole fraction × 10^3
same,"solubility, X^exp × 10^3","DMSO+water, x2*(DMSO)=0.2, 308.15 K",45.37 ± 0.84 mole fraction × 10^3
same,"solubility, X^exp × 10^3","DMSO+water, x2*(DMSO)=0.2, 313.15 K",50.66 ± 1.03 mole fraction × 10^3
same,"solubility, X^exp × 10^3","DMSO+water, x2*(DMSO)=0.4, 298.15 K",136.28 ± 5.21 mole fraction × 10^3
same,"solubility, X^exp × 10^3","DMSO+water, x2*(DMSO)=0.4, 303.15 K",153.75 ± 0.89 mole fraction × 10^3
same,"solubility, X^exp × 10^3","DMSO+water, x2*(DMSO)=0.4, 308.15 K",175.06 ± 5.16 mole fraction × 10^3
same,"solubility, X^exp × 10^3","DMSO+water, x2*(DMSO)=0.4, 313.15 K",198.55 ± 12.9 mole fraction × 10^3
same,"solubility, X^exp × 10^3","DMSO+water, x2*(DMSO)=0.6, 298.15 K",257.01 ± 5.42 mole fraction × 10^3
same,"solubility, X^exp × 10^3","DMSO+water, x2*(DMSO)=0.6, 303.15 K",279.84 ± 7.39 mole fraction × 10^3
same,"solubility, X^exp × 10^3","DMSO+water, x2*(DMSO)=0.6, 308.15 K",307.25 ± 8.78 mole fraction × 10^3
same,"solubility, X^exp × 10^3","DMSO+water, x2*(DMSO)=0.6, 313.15 K",335.53 ± 2.01 mole fraction × 10^3
same,"solubility, X^exp × 10^3","DMSO+water, x2*(DMSO)=0.8, 298.15 K",301.83 ± 4.01 mole fraction × 10^3
same,"solubility, X^exp × 10^3","DMSO+water, x2*(DMSO)=0.8, 303.15 K",324.42 ± 10.85 mole fraction × 10^3
same,"solubility, X^exp × 10^3","DMSO+water, x2*(DMSO)=0.8, 308.15 K",352.69 ± 7.04 mole fraction × 10^3
same,"solubility, X^exp × 10^3","DMSO+water, x2*(DMSO)=0.8, 313.15 K",381.96 ± 8.16 mole fraction × 10^3
same,"solubility, X^exp × 10^3","DMSO+water, x2*=0.0 (neat water), 298.15 K",0.56 ± 0.03 mole fraction × 10^3
same,"solubility, X^exp × 10^3","DMSO+water, x2*=0.0 (neat water), 303.15 K",0.83 ± 0.01 mole fraction × 10^3
same,"solubility, X^exp × 10^3","DMSO+water, x2*=0.0 (neat water), 308.15 K",1.17 ± 0.04 mole fraction × 10^3
same,"solubility, X^exp × 10^3","DMSO+water, x2*=0.0 (neat water), 313.15 K",1.53 ± 0.03 mole fraction × 10^3
same,log(x1)exp,"solvent 4-Formylmorpholine, T 25.00 °C",-1.16
same,log(x1)exp,"solvent 4-Formylmorpholine, T 30.00 °C",-0.88
same,log(x1)exp,"solvent 4-Formylmorpholine, T 35.00 °C",-0.70
same,log(x1)exp,"solvent 4-Formylmorpholine, T 40.00 °C",-0.55
same,log(x1)exp,"solvent DMF, T 25.00 °C",-0.54
same,log(x1)exp,"solvent DMF, T 30.00 °C",-0.51
same,log(x1)exp,"solvent DMF, T 35.00 °C",-0.47
same,log(x1)exp,"solvent DMF, T 40.00 °C",-0.42
same,log(x1)exp,"solvent DMSO, T 25.00 °C",-0.50
same,log(x1)exp,"solvent DMSO, T 30.00 °C",-0.47
same,log(x1)exp,"solvent DMSO, T 35.00 °C",-0.43
same,log(x1)exp,"solvent DMSO, T 40.00 °C",-0.40
same,log(x1)exp,"solvent water, T 25.00 °C",-3.25
same,log(x1)exp,"solvent water, T 30.00 °C",-3.08
same,log(x1)exp,"solvent water, T 35.00 °C",-2.93
same,log(x1)exp,"solvent water, T 40.00 °C",-2.82
same,"solubility, X^exp × 10^3","x2*=1.0 (neat 4FM), 298.15 K",69.45 ± 0.49 mole fraction × 10^3
same,"solubility, X^exp × 10^3","x2*=1.0 (neat 4FM), 303.15 K",132.21 ± 4.61 mole fraction × 10^3
same,"solubility, X^exp × 10^3","x2*=1.0 (neat 4FM), 308.15 K",200.82 ± 7.43 mole fraction × 10^3
same,"solubility, X^exp × 10^3","x2*=1.0 (neat 4FM), 313.15 K",279.66 ± 2.42 mole fraction × 10^3
same,"solubility, X^exp × 10^3","x2*=1.0 (neat DMF), 298.15 K",288.65 ± 1.99 mole fraction × 10^3
same,"solubility, X^exp × 10^3","x2*=1.0 (neat DMF), 303.15 K",308.50 ± 5.81 mole fraction × 10^3
same,"solubility, X^exp × 10^3","x2*=1.0 (neat DMF), 308.15 K",336.89 ± 13.52 mole fraction × 10^3
same,"solubility, X^exp × 10^3","x2*=1.0 (neat DMF), 313.15 K",378.60 ± 8.94 mole fraction × 10^3
same,"solubility, X^exp × 10^3","x2*=1.0 (neat DMSO), 298.15 K",319.77 ± 2.83 mole fraction × 10^3
same,"solubility, X^exp × 10^3","x2*=1.0 (neat DMSO), 303.15 K",342.67 ± 5.19 mole fraction × 10^3
same,"solubility, X^exp × 10^3","x2*=1.0 (neat DMSO), 308.15 K",369.38 ± 9.57 mole fraction × 10^3
same,"solubility, X^exp × 10^3","x2*=1.0 (neat DMSO), 313.15 K",402.31 ± 9.04 mole fraction × 10^3
